Results on one compound are retold here after publication PMC7217877, “N-AS-triggered SPMs are direct regulators of microglia in a model of Alzheimer’s disease” (Nature Communications, 2020).

The series is described as follows: microsomal stability. Particulars: for half-life at 1 µM: pH 7.4. It is filed as in vitro ADME. On the procedure: An N-AS stock solution (10 mM dissolved in methanol) was diluted with methanol to make a concentration of 100 μM. A 10 μl aliquot of this solution was then diluted using 90 μl of 100 mM potassium phosphate buffer (pH 7.4). 10 μl of this N-AS solution was incubated at 37 °C with human or mouse liver microsomes (80 μl of 0.625 mg protein ml^−1 phosphate buffer) for 10 min before adding of 10 μl of an NADPH regenerating system to start the reaction. Reactions were stopped at 0, 15, 30, 60, and 90 min time-points by the addition of 200 μl cold acetonitrile (containing propranolol as internal standard at 20 ng ml^−1) and centrifuged at 17,968×g for 10 min. A 2 μl aliquot of the supernatant was injected into the LC-MS/MS system. The ratio of peak area of test compound/internal standard was used to determine the % remaining of N-AS over time.

As for `CCCCCCCCCCCCC/C=C/[C@@H](O)[C@H](CO)NC(C)=O` [N-AS, N-((2S,3R,E)-1,3-Dihydroxyoctadec-4-en-2-yl)acetamide], where the note is “Mouse liver microsomes”, the “% of remaining after 0.5 h” value is reported as 60.7% and the half-life at 1 µM was 54 min. For the same compound, for the setting “Human liver microsomes”, the half-life at 1 µM is 36 min.
